Experimental data from ChEMBL document CHEMBL1770066, “A green expedient synthesis of pyridopyrimidine-2-thiones and their antitubercular activity” (2011).
Converted amounts (≈) assume the structure as drawn.

Assays:
Format in all cases: functional
[1] = test system: Mycobacterium tuberculosis; assay: Antituberculosis activity against Mycobacterium tuberculosis H37Rv by agar dilution method
[2] = test system: Mycobacterium tuberculosis; assay: Ratio of MIC for ethambutol to compound for Mycobacterium tuberculosis H37Rv
[3] = test system: Mycobacterium tuberculosis; assay: Ratio of MIC for ciprofloxacin to compound for Mycobacterium tuberculosis H37Rv

SMILES	MIC [1] [µM]	Ratio [2]	Ratio [3]
S=C1NC2=C(CN(Cc3ccccc3)C/C2=C\c2cccc3ccccc23)C(c2cccc3ccccc23)N1 (stereo not given)	47.7 (≈ 25 µg/mL)	–	–
S=C1NC2=C(CN(Cc3ccccc3)C/C2=C\c2ccccc2Cl)C(c2ccccc2Cl)N1 (stereo not given)	25.4 (≈ 12.5 µg/mL)	–	–
CN1CC2=C(NC(=S)NC2c2ccc(N(C)C)cc2)/C(=C/c2ccc(N(C)C)cc2)C1 (stereo not given)	57.7 (≈ 25 µg/mL)	–	–
S=C1NC2=C(CN(Cc3ccccc3)C/C2=C\c2ccc(Cl)cc2)C(c2ccc(Cl)cc2)N1 (stereo not given)	25.4 (≈ 12.5 µg/mL)	–	–
CN1CC2=C(N=C(S)NC2c2ccccc2Cl)/C(=C/c2ccccc2Cl)C1 (stereo not given)	30 (≈ 12.5 µg/mL)	–	–
CN1CC2=C(N=C(S)NC2c2ccc(Cl)cc2)/C(=C/c2ccc(Cl)cc2)C1 (stereo not given)	30 (≈ 12.5 µg/mL)	–	–
Fc1ccc(/C=C2\CN(Cc3ccccc3)CC3=C2NC(=S)NC3c2ccc(F)cc2)cc1 (stereo not given)	3.4 (≈ 1.56 µg/mL)	2.2	1.4
Cc1ccc(/C=C2\CN(C)CC3=C2N=C(S)NC3c2ccc(C)cc2)cc1 (stereo not given)	66.6 (≈ 25 µg/mL)	–	–
Fc1cccc(/C=C2\CN(Cc3ccccc3)CC3=C2NC(=S)NC3c2cccc(F)c2)c1 (stereo not given)	6.8 (≈ 3.13 µg/mL)	1.1	–
CC(C)c1ccc(/C=C2\CN(Cc3ccccc3)CC3=C2NC(=S)NC3c2ccc(C(C)C)cc2)cc1 (stereo not given)	24.6 (≈ 12.5 µg/mL)	–	–
COc1ccc(/C=C2\CN(Cc3ccccc3)CC3=C2NC(=S)NC3c2ccc(OC)cc2)cc1 (stereo not given)	51.7 (≈ 25 µg/mL)	–	–
CN1CC2=C(NC(=S)NC2c2ccc(F)cc2)/C(=C/c2ccc(F)cc2)C1 (stereo not given)	32.6 (≈ 12.5 µg/mL)	–	–
CN(C)c1ccc(/C=C2\CN(Cc3ccccc3)CC3=C2NC(=S)NC3c2ccc(N(C)C)cc2)cc1 (stereo not given)	49.1 (≈ 25 µg/mL)	–	–
COc1ccc(OC)c(/C=C2\CN(C)CC3=C2NC(=S)NC3c2cc(OC)ccc2OC)c1 (stereo not given)	53.5 (≈ 25 µg/mL)	–	–
S=C1NC2=C(CN(Cc3ccccc3)C/C2=C\c2ccccc2Br)C(c2ccccc2Br)N1 (stereo not given)	21.5 (≈ 12.5 µg/mL)	–	–
CN1CC2=C(N=C(S)NC2c2ccccc2)/C(=C/c2ccccc2)C1 (stereo not given)	71.9 (≈ 25 µg/mL)	–	–
CN1CC2=C(NC(=S)NC2c2ccc(Cl)cc2Cl)/C(=C/c2ccc(Cl)cc2Cl)C1 (stereo not given)	12.9 (≈ 6.26 µg/mL)	–	–
S=C1NC2=C(CN(Cc3ccccc3)C/C2=C\c2ccccc2)C(c2ccccc2)N1 (stereo not given)	59 (≈ 25 µg/mL)	–	–
CN1CC2=C(NC(=S)NC2c2ccc3ccccc3c2)/C(=C/c2ccc3ccccc3c2)C1 (stereo not given)	55.9 (≈ 25 µg/mL)	–	–
CN1CC2=C(NC(=S)NC2c2ccc(Br)cc2)/C(=C/c2ccc(Br)cc2)C1 (stereo not given)	24.7 (≈ 12.5 µg/mL)	–	–

SMILES	MIC [1] [µM]	Ratio [2]	Ratio [3]
CN1CC2=C(NC(=S)NC2c2cccc(F)c2)/C(=C/c2cccc(F)c2)C1 (stereo not given)	16.3 (≈ 6.25 µg/mL)	–	–
COc1ccc(/C=C2\CN(Cc3ccccc3)CC3=C2NC(=S)NC3c2ccc(OC)c(OC)c2)cc1OC (stereo not given)	46 (≈ 25 µg/mL)	–	–
Cc1ccc(/C=C2\CN(Cc3ccccc3)CC3=C2NC(=S)NC3c2ccc(C)cc2)cc1 (stereo not given)	55.4 (≈ 25 µg/mL)	–	–
CN1CC2=C(NC(=S)NC2c2c(Cl)cccc2Cl)/C(=C/c2c(Cl)cccc2Cl)C1 (stereo not given)	5.6 (≈ 2.72 µg/mL)	1.4	–
COc1ccccc1/C=C1\CN(C)CC2=C1NC(=S)NC2c1ccccc1OC (stereo not given)	61.4 (≈ 25 µg/mL)	–	–
NNC(=O)c1ccncc1 [ISONIAZID]	0.4 (≈ 0.0549 µg/mL)	–	–
COc1ccc(/C=C2\CN(C)CC3=C2NC(=S)NC3c2ccc(OC)c(OC)c2)cc1OC (stereo not given)	53.5 (≈ 25 µg/mL)	–	–
CO[C@H]1/C=C/O[C@@]2(C)Oc3c(C)c(O)c4c(O)c(c(/C=N/N5CCN(C)CC5)c(O)c4c3C2=O)NC(=O)/C(C)=C\C=C\[C@H](C)[C@H](O)[C@@H](C)[C@@H](O)[C@@H](C)[C@H](OC(C)=O)[C@@H]1C [RIFAMPIN]	0.1 (≈ 0.0823 µg/mL)	–	–
CC(C)c1ccc(/C=C2\CN(C)CC3=C2NC(=S)NC3c2ccc(C(C)C)cc2)cc1 (stereo not given)	57.9 (≈ 25 µg/mL)	–	–
CN1CC2=C(NC(=S)NC2c2cccc3ccccc23)/C(=C/c2cccc3ccccc23)C1 (stereo not given)	55.9 (≈ 25 µg/mL)	–	–
S=C1NC2=C(CN(Cc3ccccc3)C/C2=C\c2ccc(Cl)cc2Cl)C(c2ccc(Cl)cc2Cl)N1 (stereo not given)	2.8 (≈ 1.57 µg/mL)	2.7	1.7
COc1cc(/C=C2\CN(Cc3ccccc3)CC3=C2NC(=S)NC3c2cc(OC)c(OC)c(OC)c2)cc(OC)c1OC (stereo not given)	41.4 (≈ 25 µg/mL)	–	–
COc1ccc(/C=C2\CN(C)CC3=C2N=C(S)NC3c2ccc(OC)cc2)cc1 (stereo not given)	61.4 (≈ 25 µg/mL)	–	–
COc1ccc(OC)c(/C=C2\CN(Cc3ccccc3)CC3=C2NC(=S)NC3c2cc(OC)ccc2OC)c1 (stereo not given)	46 (≈ 25 µg/mL)	–	–
CC[C@@H](CO)NCCN[C@@H](CC)CO [ETHAMBUTOL]	7.6 (≈ 1.55 µg/mL)	–	–
Cc1ccccc1/C=C1\CN(C)CC2=C1NC(=S)NC2c1ccccc1C (stereo not given)	66.6 (≈ 25 µg/mL)	–	–
CN1CC2=C(N=C(S)NC2c2cccs2)/C(=C/c2cccs2)C1 (stereo not given)	69.5 (≈ 25 µg/mL)	–	–
Cc1ccccc1/C=C1\CN(Cc2ccccc2)CC2=C1NC(=S)NC2c1ccccc1C (stereo not given)	55.4 (≈ 25 µg/mL)	–	–
CN1CC2=C(NC(=S)NC2c2cccc(Br)c2)/C(=C/c2cccc(Br)c2)C1 (stereo not given)	24.7 (≈ 12.5 µg/mL)	–	–
